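Where inhibition never reached the appropriate level, the endpoint shown equals the highest concentration tested. Otherwise, values were interpolated linearly from a five-concentration, 48-hour dose response in 96-well plates. GI50 = concentration required for 50% inhibition of growth. At the TGI there is no net growth.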
What was measured:
Assay in all cases: NCI tumour cell line growth inhibition, 48 h
BT-549 breast = system: BT-549 breast
786-0 renal = system: 786-0 renal
SNB-75 CNS = system: SNB-75 CNS
KM12 colon = system: KM12 colon
SF-268 CNS = system: SF-268 CNS
MCF7 breast = system: MCF7 breast
HCC-2998 colon = system: HCC-2998 colon
NCI-H460 lung = system: NCI-H460 lung
UACC-62 melanoma = system: UACC-62 melanoma
CAKI-1 renal = system: CAKI-1 renal
M14 melanoma = system: M14 melanoma
SNB-19 CNS = system: SNB-19 CNS
NCI-H226 lung = system: NCI-H226 lung
HS 578T breast = system: HS 578T breast
NCI/ADR-RES ovarian = system: NCI/ADR-RES ovarian
UACC-257 melanoma = system: UACC-257 melanoma
NCI-H522 lung = system: NCI-H522 lung
K-562 leukemia = system: K-562 leukemia
HT29 colon = system: HT29 colon
LOX IMVI melanoma = system: LOX IMVI melanoma
ACHN renal = system: ACHN renal
SK-MEL-2 melanoma = system: SK-MEL-2 melanoma
SW-620 colon = system: SW-620 colon
PC-3 prostate = system: PC-3 prostate
CCRF-CEM leukemia = system: CCRF-CEM leukemia
MDA-MB-231 breast = system: MDA-MB-231 breast
T-47D breast = system: T-47D breast
SK-MEL-5 melanoma = system: SK-MEL-5 melanoma
IGROV1 ovarian = system: IGROV1 ovarian
A498 renal = system: A498 renal
OVCAR-8 ovarian = system: OVCAR-8 ovarian
UO-31 renal = system: UO-31 renal
OVCAR-3 ovarian = system: OVCAR-3 ovarian
COLO 205 colon = system: COLO 205 colon
MDA-MB-435 = system: MDA-MB-435
DU-145 prostate = system: DU-145 prostate
OVCAR-5 ovarian = system: OVCAR-5 ovarian
TK-10 renal = system: TK-10 renal
SF-295 CNS = system: SF-295 CNS
SK-MEL-28 melanoma = system: SK-MEL-28 melanoma
SK-OV-3 ovarian = system: SK-OV-3 ovarian
HCT-116 colon = system: HCT-116 colon
MOLT-4 leukemia = system: MOLT-4 leukemia
HOP-92 NSCLC = system: HOP-92 NSCLC
HOP-62 NSCLC = system: HOP-62 NSCLC
SR leukemia = system: SR leukemia
HCT-15 colon = system: HCT-15 colon
HL-60(TB) leukemia = system: HL-60(TB) leukemia
A549 NSCLC = system: A549 NSCLC
SN12C renal = system: SN12C renal
SF-539 CNS = system: SF-539 CNS
RPMI-8226 leukemia = system: RPMI-8226 leukemia
NCI-H23 lung = system: NCI-H23 lung
MALME-3M melanoma = system: MALME-3M melanoma
OVCAR-4 ovarian = system: OVCAR-4 ovarian
U251 CNS = system: U251 CNS

## CCCCCn1c(=N)n(CC(O)COc2cccc(C)c2)c2ccccc21 (configuration not stated)
BT-549 breast
  GI50: 9.22 µM
  TGI: 23.3 µM
786-0 renal
  GI50: 7.74 µM
  TGI: 23.3 µM
SNB-75 CNS
  GI50: 2.65 µM
  TGI: 16.5 µM
KM12 colon
  GI50: 4.02 µM
  TGI: 15.1 µM
SF-268 CNS
  GI50: 10.7 µM
  TGI: 23.9 µM
MCF7 breast
  GI50: 2.85 µM
  TGI: 11.6 µM
HCC-2998 colon
  GI50: 2.1 µM
  TGI: 3.98 µM
NCI-H460 lung
  GI50: 4.62 µM
  TGI: 17.3 µM
UACC-62 melanoma
  GI50: 4.85 µM
  TGI: 18.5 µM
CAKI-1 renal
  GI50: 6.95 µM
  TGI: 21.2 µM
M14 melanoma
  GI50: 3.26 µM
  TGI: 12.3 µM
SNB-19 CNS
  GI50: 12.3 µM
  TGI: 26.4 µM
NCI-H226 lung
  GI50: 10.3 µM
  TGI: 28 µM
HS 578T breast
  GI50: 5.5 µM
  TGI: 24.8 µM
NCI/ADR-RES ovarian
  GI50: 10.5 µM
  TGI: 27.1 µM
UACC-257 melanoma
  GI50: 3.36 µM
  TGI: 12 µM
NCI-H522 lung
  GI50: 5.7 µM
  TGI: 20 µM
K-562 leukemia
  GI50: 2.76 µM
  TGI: 10.2 µM
HT29 colon
  GI50: 2.73 µM
  TGI: 11.2 µM
LOX IMVI melanoma
  GI50: 3.25 µM
  TGI: 11.6 µM
ACHN renal
  GI50: 8.85 µM
  TGI: 23.8 µM
SK-MEL-2 melanoma
  GI50: 5.68 µM
  TGI: 18.4 µM
SW-620 colon
  GI50: 4.26 µM
  TGI: 18.3 µM
PC-3 prostate
  GI50: 4 µM
  TGI: 16.3 µM
CCRF-CEM leukemia
  GI50: 3.12 µM
  TGI: 15.2 µM
MDA-MB-231 breast
  GI50: 5.39 µM
  TGI: 18.8 µM
T-47D breast
  GI50: 3.33 µM
  TGI: 10.6 µM
SK-MEL-5 melanoma
  GI50: 2.75 µM
  TGI: 7.82 µM
IGROV1 ovarian
  GI50: 4.45 µM
  TGI: 18 µM
A498 renal
  GI50: 1.49 µM
  TGI: 13 µM
OVCAR-8 ovarian
  GI50: 2.11 µM
  TGI: 5.04 µM
UO-31 renal
  GI50: 4.03 µM
  TGI: 17.6 µM
OVCAR-3 ovarian
  GI50: 8 µM
  TGI: 21.2 µM
COLO 205 colon
  GI50: 1.93 µM
  TGI: 3.62 µM
MDA-MB-435
  GI50: 3 µM
  TGI: 11.2 µM
DU-145 prostate
  GI50: 11.4 µM
  TGI: 24 µM
OVCAR-5 ovarian
  GI50: 9.82 µM
  TGI: 25.2 µM
TK-10 renal
  GI50: 10.2 µM
  TGI: 22.4 µM
SF-295 CNS
  GI50: 5.62 µM
  TGI: 22.8 µM
SK-MEL-28 melanoma
  GI50: 3.95 µM
  TGI: 14.7 µM
SK-OV-3 ovarian
  GI50: 11.8 µM
  TGI: 24.2 µM
HCT-116 colon
  GI50: 3.03 µM
  TGI: 17.7 µM
MOLT-4 leukemia
  GI50: 3.08 µM
  TGI: 11.1 µM
HOP-92 NSCLC
  GI50: 2.74 µM
  TGI: 14.8 µM
HOP-62 NSCLC
  GI50: 12 µM
  TGI: 25.6 µM
SR leukemia
  GI50: 2.02 µM
  TGI: 5.57 µM
HCT-15 colon
  GI50: 4.93 µM
  TGI: 20.3 µM
HL-60(TB) leukemia
  GI50: 2.15 µM
  TGI: 4.9 µM
A549 NSCLC
  GI50: 10.2 µM
  TGI: 22.9 µM
SN12C renal
  GI50: 5.41 µM
  TGI: 19 µM
SF-539 CNS
  GI50: 11.7 µM
  TGI: 24.7 µM
RPMI-8226 leukemia
  GI50: 2.09 µM
  TGI: 5.2 µM
NCI-H23 lung
  GI50: 6.87 µM
  TGI: 22.5 µM
MALME-3M melanoma
  GI50: 2.39 µM
  TGI: 6.1 µM
OVCAR-4 ovarian
  GI50: 3.67 µM
  TGI: 17.6 µM
U251 CNS
  GI50: 2.11 µM
  TGI: 4.25 µM

From PubChem BioAssay (NCI)
